Assay results: the supplement of paper PMC11208160

Test: recombinant UMI read abundance after kanamycin selection (control-corrected) (log10(CPM+1)); higher = more efficient recombination; extreme values may be limits of the assay; sequences stand for … in AGTGCAGAGAAAATCGGCCAGTTTTCTCTGCCTGCAGTCCGCATGCCGTGGGACCCCTTGGGTTCTAACCTGTTGCCTAGATTTATGCAGCGGACTGCCTTTCTCCCAAAGTGATAAACCGG…AGGTTGGTTTCACT; site = the 11-nt donor
Procedure, shortened: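 Sequenced counts of recombinant UMIs were turned into CPM, averaged across replicates and scaled with control-derived factors. The reported figure is log10(CPM+1). Those UMIs, each 12 nt long, tagged donor and donor-binding-loop pairs on a plasmid with a promoterless kanamycin gene, screened as a pool in Escherichia coli with IPTG (0.07 mM) plus kanamycin or without selection.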
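Further: IS621 bridge recombinase in Escherichia coli cells against a fixed T5 target plasmid.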

Sequence	recombinant UMI read abundance (log10)
ATTGAGACATGGACCGGTTTTCCCGGTAATCCGTATTTGGC (site ATTGAGACTCC)	0.38
ATTGAGACATGGACCGGTTTTCCCGGTAATCCGTATTTGGC (site ATTGAGACTGC)	1.83
ATTGAGACATGGACCGGTTTTCCCGGTAATCCGTATTTGGC (site ATTGAGACTTC)	0.679
ATTGAGACATGGACCGGTTTTCCCGGTAATCCGTATTTGTT (site ATTGAGACTAA)	1.71
ATTGAGACATGGACCGGTTTTCCCGGTAATCCGTATTTGTT (site ATTGAGACTAC)	0.013
ATTGAGACATGGACCGGTTTTCCCGGTAATCCGTATTTGTT (site ATTGAGACTAG)	2.02
ATTGAGACATGGACCGGTTTTCCCGGTAATCCGTATTTGTT (site ATTGAGACTAT)	0.811
ATTGAGCCATGGACCGGTTTTCCCGGTAATCCGTATTTGGT (site ATTGAGACTAC)	0.00491
ATTGAGCCATGGACCGGTTTTCCCGGTAATCCGTATTTGGT (site ATTGAGCCTAC)	0.00384
ATTGAGCCATGGACCGGTTTTCCCGGTAATCCGTATTTGGT (site ATTGAGGCTAC)	0.0212
ATTGAGCCATGGACCGGTTTTCCCGGTAATCCGTATTTGGT (site ATTGAGTCTAC)	0.633
ATTGAGGCATGGACCGGTTTTCCCGGTAATCCGTATTTGGT (site ATTGAGACTAC)	0.413
ATTGAGGCATGGACCGGTTTTCCCGGTAATCCGTATTTGGT (site ATTGAGCCTAC)	0.486
ATTGAGGCATGGACCGGTTTTCCCGGTAATCCGTATTTGGT (site ATTGAGGCTAC)	0.927
ATTGAGGCATGGACCGGTTTTCCCGGTAATCCGTATTTGGT (site ATTGAGTCTAC)	0.801
ATTGCAGCATGGACCGGTTTTCCCGGTAATCCGTATTTGAG (site ATTGCAGCTCT)	1.03
ATTGCCGCATGGACCGGTTTTCCCGGTAATCCGTATTTGTC (site ATTGCCGCTGA)	0.656
ATTGCCTCATGGACCGGTTTTCCCGGTAATCCGTATTTGCT (site ATTGCCTCTAG)	2.03
ATTGCGACATGGACCGGTTTTCCCGGTAATCCGTATTTGGT (site ATTGAGACTAC)	0.0594
ATTGCGACATGGACCGGTTTTCCCGGTAATCCGTATTTGGT (site ATTGCGACTAC)	0.639
ATTGCGACATGGACCGGTTTTCCCGGTAATCCGTATTTGGT (site ATTGGGACTAC)	0.456
ATTGCGACATGGACCGGTTTTCCCGGTAATCCGTATTTGGT (site ATTGTGACTAC)	0.225
ATTGGGACATGGACCGGTTTTCCCGGTAATCCGTATTTGGT (site ATTGAGACTAC)	0.413
ATTGGGACATGGACCGGTTTTCCCGGTAATCCGTATTTGGT (site ATTGCGACTAC)	0.021
ATTGGGACATGGACCGGTTTTCCCGGTAATCCGTATTTGGT (site ATTGGGACTAC)	0.896

Sequence	recombinant UMI read abundance (log10)
ATTGGGACATGGACCGGTTTTCCCGGTAATCCGTATTTGGT (site ATTGTGACTAC)	0.0209
ATTGTGCCATGGACCGGTTTTCCCGGTAATCCGTATTTGAC (site ATTGTGCCTGT)	0.819
ATTGTGCCATGGACCGGTTTTCCCGGTAATCCGTATTTGCA (site ATTGTGCCTTG)	0.682
ATTGTGCCATGGACCGGTTTTCCCGGTAATCCGTATTTGTG (site ATTGTGCCTCA)	0.054
ATTGTGTCATGGACCGGTTTTCCCGGTAATCCGTATTTGAC (site AATGTGTCTGT)	0
ATTGTGTCATGGACCGGTTTTCCCGGTAATCCGTATTTGAC (site ACTGTGTCTGT)	1.41
ATTGTGTCATGGACCGGTTTTCCCGGTAATCCGTATTTGAC (site AGTGTGTCTGT)	0
ATTGTGTCATGGACCGGTTTTCCCGGTAATCCGTATTTGAC (site ATTGTGTCTGT)	1.6
ATTGTTACATGGACCGGTTTTCCCGGTAATCCGTATTTGTG (site ATTGTTACTCA)	0.634
ATTTATACATGGACCGGTTTTCCCGGTAATCCGTATTTGAC (site ATATATACTGT)	0.718
ATTTATACATGGACCGGTTTTCCCGGTAATCCGTATTTGAC (site ATCTATACTGT)	1.22
ATTTATACATGGACCGGTTTTCCCGGTAATCCGTATTTGAC (site ATGTATACTGT)	1.21
ATTTATACATGGACCGGTTTTCCCGGTAATCCGTATTTGAC (site ATTTATACTGT)	0.544
ATTTCTCCATGGACCGGTTTTCCCGGTAATCCGTATTTGAC (site ATTTCTCCTGT)	0
CAAAATGCATGGACCGGTTTTCCCGGTAATCCGTATTTGAC (site CAAAATGCTGT)	2.14
CAAACATCATGGACCGGTTTTCCCGGTAATCCGTATTTGCT (site CAAACATCTAG)	1.94
CAAACATCATGGACCGGTTTTCCCGGTAATCCGTATTTGCT (site CGATCATCTAG)	0
CAAACGCCATGGACCGGTTTTCCCGGTAATCCGTATTTGTG (site CAAACGCCTCA)	0.56
CAAACGCCATGGACCGGTTTTCCCGGTAATCCGTATTTGTG (site CAACCGCCTCA)	0.033
CAAACGCCATGGACCGGTTTTCCCGGTAATCCGTATTTGTG (site CAAGCGCCTCA)	0.0253
CAAACGCCATGGACCGGTTTTCCCGGTAATCCGTATTTGTG (site CAATCGCCTCA)	0.0256
CAAATAACATGGACCGGTTTTCCCGGTAATCCGTATTTGCA (site CAAATAACTTG)	1.1
CAAATCCCATGGACCGGTTTTCCCGGTAATCCGTATTTGCT (site CAAATCCCTAG)	0
CAAATCCCATGGACCGGTTTTCCCGGTAATCCGTATTTGCT (site CAACTCCCTAG)	0.00602
CAAATCCCATGGACCGGTTTTCCCGGTAATCCGTATTTGCT (site CAAGTCCCTAG)	0

Sequence	recombinant UMI read abundance (log10)
CAAATCCCATGGACCGGTTTTCCCGGTAATCCGTATTTGCT (site CAATTCCCTAG)	0
CAAATGGCATGGACCGGTTTTCCCGGTAATCCGTATTTGCA (site CAAATGGCTTG)	2.04
CAACAACCATGGACCGGTTTTCCCGGTAATCCGTATTTGTC (site CAACAACCTGA)	0.474
CAACAGGCATGGACCGGTTTTCCCGGTAATCCGTATTTGTA (site CAACAGGCTTA)	1.18
CAACATACATGGACCGGTTTTCCCGGTAATCCGTATTTGTG (site CAACATACTCA)	1.83
CAACCGCCATGGACCGGTTTTCCCGGTAATCCGTATTTGTG (site CAAACGCCTCA)	0.00379
CAACCGCCATGGACCGGTTTTCCCGGTAATCCGTATTTGTG (site CAACCGCCTCA)	0.00924
CAACCGCCATGGACCGGTTTTCCCGGTAATCCGTATTTGTG (site CAAGCGCCTCA)	0.0348
CAACCGCCATGGACCGGTTTTCCCGGTAATCCGTATTTGTG (site CAATCGCCTCA)	0.0138
CAACGCACATGGACCGGTTTTCCCGGTAATCCGTATTTGTT (site CAACGCACTAA)	1.62
CAAGAGCCATGGACCGGTTTTCCCGGTAATCCGTATTTGTG (site CAAGAGCCTCA)	1.28
CAAGAGCCATGGACCGGTTTTCCCGGTAATCCGTATTTGTG (site CAAGCGCCTCA)	0.0351
CAAGAGCCATGGACCGGTTTTCCCGGTAATCCGTATTTGTG (site CAAGGGCCTCA)	0.55
CAAGAGCCATGGACCGGTTTTCCCGGTAATCCGTATTTGTG (site CAAGTGCCTCA)	0.0217
CAAGCAACATGGACCGGTTTTCCCGGTAATCCGTATTTGCT (site CAAGCAACTAG)	1.57
CAAGCAACATGGACCGGTTTTCCCGGTAATCCGTATTTGCT (site CAAGCACCTAG)	0
CAAGCAACATGGACCGGTTTTCCCGGTAATCCGTATTTGCT (site CAAGCAGCTAG)	0
CAAGCAACATGGACCGGTTTTCCCGGTAATCCGTATTTGCT (site CAAGCATCTAG)	0.289
CAAGCCACATGGACCGGTTTTCCCGGTAATCCGTATTTGGG (site CAAGACACTCC)	0.0254
CAAGCCACATGGACCGGTTTTCCCGGTAATCCGTATTTGGG (site CAAGCCACTCC)	0.408
CAAGCCACATGGACCGGTTTTCCCGGTAATCCGTATTTGGG (site CAAGGCACTCC)	0.00628
CAAGCCACATGGACCGGTTTTCCCGGTAATCCGTATTTGGG (site CAAGTCACTCC)	0.0106
CAAGCCCCATGGACCGGTTTTCCCGGTAATCCGTATTTGCT (site CAAGCCCCTAG)	2.06
CAAGCCGCATGGACCGGTTTTCCCGGTAATCCGTATTTGCT (site CAAGCAGCTAG)	2.06
CAAGCCGCATGGACCGGTTTTCCCGGTAATCCGTATTTGCT (site CAAGCCGCTAG)	2.56
